Key:
ROCK2 = ROCK2 (Homo sapiens (Human), UniProt O75116); experiment: ROCK2 Kinase Activity Assay (HTRF KinEASE-STK S2 kit); assay type: biochemical
Procedure: The kinase IC50 was determined by a commercialized CISBIO kinase detection kit, HTRF KinEASE-STK S2 kit (62ST2PEC). ROCK2 (01-119) employed in the reaction was purchased from Carna Biosciences.
Before the assay, the following working solutions as needed were formulated with corresponding reagents according to the instruction of the kinase detection kit: 1×kinase buffer, 5×STK-S2 substrate working solution (1.5 μM) and 5×ATP working solution (1.5 μM), 5×ROCK2 kinase working solution, 4×Streptavidin-XL665 working solution, and 4×STK-Ab-Cryptate 2 detection solution. Then the assay was performed according to the following procedure.
A solution of a compound at a concentration of 10000 nM was prepared with the 1×kinase buffer containing 2.5% DMSO. Gradient dilution of the solution of the compound was performed with the kinase buffer containing DMSO, so as to obtain solutions of a test compound at 9 different concentrations. In addition to wells of test compounds, a positive well (containing all the reagents except the compound) and a negative well (containing all the reagents except the test compound and kinase) were set. Except for the control wells (positive and negative wells), a solution of a test compound (4 μL) was added to each of the reaction wells, and a solution of 2.5% DMSO was added to the control wells. Then the substrate (2 μM, i.e., 2 μL 5×STK-S2 substrate working solution) was added to each of the reaction wells. The 5×ROCK2 kinase working solution (2 μL, containing 1.4 ng ROCK2 kinase) was added to each of the reaction wells except for the negative well, the volume of which was made up with the 1×kinase buffer (2 μL). The 5×ATP working solution (2 μL) was added to each of the reaction wells, and the mixtures were incubated at room temperature for 2 hours. After the kinase reaction was complete, the 4×Streptavidin-XL665 working solution was added to each of the reaction wells, the solutions were mixed, followed by immediate addition of the 4×STK-Ab-Cryptate 2 detection solution (5 μL), and the mixtures were incubated at room temperature for 1 hour. The fluorescence signal was read on ENVISION (Perkinelmer) (excitation wavelength: 320 nm, and emission wavelength: 665 nm and 615 nm). The inhibitory rate in each well was calculated based on the fluorescence intensity value: ER (Emission Ratio)=(fluorescence intensity at 665 nm/fluorescence intensity at 615 nm); inhibitory rate=(ERpositive−ERtest compound)/(ERpositive−ERnegative)*100%. Curves were plotted and fitted to obtain the median inhibitory concentration (IC50) of each teat compound with the PRISM 5.0 software.

[1] = tested on: irradiated BALB/c recipient mice infused with C57BL/6 donor bone marrow and spleen cells; experiment: Therapeutic effect in mice: allogeneic bone marrow/spleen cell transplantation GVHD model, survival rate; assay type: in vivo; settings: 30 mpk oral gavage once daily for 23 days, compared with the model group
Procedure: Male BALB/c recipient mice were irradiated with 8.5 Gy of total body irradiation (TBI) (Gammacell 40, NORPION International Co., Ltd., irradiation source: ^137Cs). A suspension of bone marrow cells (BMC) and spleen cells (SC) from C57BL/6 (H-2b) donor mice was prepared and infused via tail vein to irradiated BALB/c recipient mice at 0.5 mL/per mouse (containing 10×10^6 bone marrow cells and 6.25×10^6 spleen cells from the allogeneic C57BL/6 (H-2b) donor mice). Subsequently, the BALB/c mice were randomly divided into two groups: a model group (G2) and a compound 007 group (G3). An irradiation group (G4) (i.e., receiving ^137Cs irradiation only without donor mouse cell suspension infusion) and a syngeneic bone marrow transplantation group (G1) (a suspension containing 10×10^6 bone marrow cells from syngeneic BALB/c mice was administered to mice in this group via tail vein infusion). G1-G4 groups comprised 9 mice per group. The mice in the model group, the irradiation group and the syngeneic bone marrow transplantation group were administered with vehicle (a 0.2% Tween-80 aqueous solution) by oral gavage, once a day for 23 days. The mice in the compound 007 group were administered with 30 mpk of compound 007 by oral gavage, once daily for 23 days from the first day of model establishment. The survival rate of the animals was recorded daily.

[2] = tested on: CD4 Naïve T cells from BALB/c mice mixed with C57BL/6 dendritic cells; experiment: Allogeneic Mixed Lymphocyte Reaction, inflammatory factors in supernatant; assay type: cell-based, mouse; settings: 125 nM, 250 nM, 500 nM, 1000 nM; 5 days of culture; compared with control group
Procedure: Bone marrow cells from C57BL/6 (B6) mouse were isolated and incubated with granulocyte-macrophage colony stimulating factor (GM-CSF, 20 ng/mL, Biolegend, 713704) and interleukin-4 (IL-4, 10 ng/mL, Biolegend, 10715004) for 7 days, followed by addition of 20 ng/mL lipopolysaccharide (LPS) and incubation for 24 hours, the dendritic cells (DC) were collected. The CD4 Naïve T cells from BALB/c mice were extracted and isolated with a commercial kit (Dakewe, 480039). […] CD4 Naïve T cells and 25×10^3 DC cells were mixed and cultured. Compound 007 was added to the mixed cells at four concentrations (125 nM, 250 nM, 500 nM, and 1000 nM), respectively, and a control group (to which an equal amount of the medium was added) was set. After 5 days of culture, the supernatants were collected and kits were employed for the detection of inflammatory factors (IL-6 (Duyou, 1210602), TNF-α (Duyou, 1217202), IFN-γ (Duyou, 1210002), and IL-2 (Duyou, 1210202)).

Chain of ROCK2 (O75116 1-553 limits assumed): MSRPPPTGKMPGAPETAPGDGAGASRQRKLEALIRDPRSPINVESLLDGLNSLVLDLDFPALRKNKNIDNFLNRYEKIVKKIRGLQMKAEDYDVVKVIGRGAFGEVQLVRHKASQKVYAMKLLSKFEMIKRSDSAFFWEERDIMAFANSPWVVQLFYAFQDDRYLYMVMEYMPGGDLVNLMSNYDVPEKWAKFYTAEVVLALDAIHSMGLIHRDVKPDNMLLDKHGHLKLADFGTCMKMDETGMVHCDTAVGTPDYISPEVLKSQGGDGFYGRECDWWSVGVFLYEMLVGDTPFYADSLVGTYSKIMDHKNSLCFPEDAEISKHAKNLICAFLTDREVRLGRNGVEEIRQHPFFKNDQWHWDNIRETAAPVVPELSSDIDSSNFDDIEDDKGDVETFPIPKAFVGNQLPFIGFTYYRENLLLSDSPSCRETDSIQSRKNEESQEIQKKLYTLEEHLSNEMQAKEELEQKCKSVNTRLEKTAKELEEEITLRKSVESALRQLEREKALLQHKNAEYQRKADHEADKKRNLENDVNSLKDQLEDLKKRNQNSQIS

| IC50 (ROCK2) [µM] | SMILES | survival rate [1] | levels of the inflammatory factors (IL-6, TNF-α, IFN-γ, IL-2) [2] |
| --- | --- | --- | --- |
| 0.024 | O=C(c1cc2ccc(-c3ncc(F)c(Nc4ccc(-c5cn[nH]c5)cc4)n3)cc2[nH]1)N1CC(F)(F)C1 [Compound 008] |  |  |
| 0.012 | Cn1c(C(=O)N2CC(F)(F)C2)cc2ccc(-c3ncc(F)c(Nc4ccc(-c5cn[nH]c5)cc4)n3)cc21 [Compound 009] |  |  |
| 0.061 | O=C(c1cc2ccc(-c3nccc(Nc4ccc(-c5cn[nH]c5)c(F)c4)n3)cc2[nH]1)N1CC(F)(F)C1 [Compound 010] |  |  |
| 0.044 | O=C(C1CC(F)(F)C1)N1Cc2ccc(-c3nccc(Nc4ccc(-c5cn[nH]c5)cc4)n3)cc2C1 [Compound 020] |  |  |
| 0.045 | O=C(C1CC(F)(F)C1)N1Cc2ccc(-c3ncc(F)c(Nc4ccc(-c5cn[nH]c5)cc4)n3)cc2C1 [Compound 021] |  |  |
| 0.075 | O=C(N1Cc2ccc(-c3nccc(Nc4ccc(-c5cn[nH]c5)cc4)n3)cc2C1)N1CC(F)(F)C1 [Compound 022] |  |  |

More lines, now with the values behind:

| SMILES | IC50 (ROCK2) [µM] | survival rate [1] | levels of the inflammatory factors (IL-6, TNF-α, IFN-γ, IL-2) [2] |
| --- | --- | --- | --- |
| O=C(c1cc2ccc(-c3nccc(Nc4ccc(-c5cn[nH]c5)cc4)n3)cc2[nH]1)N1CC(F)(F)C1 [Compound 006] | 0.034 |  |  |
| Cn1c(C(=O)N2CC(F)(F)C2)cc2ccc(-c3nccc(Nc4ccc(-c5cn[nH]c5)cc4)n3)cc21 [Compound 007] | 0.033 | significantly improved the survival rate | significantly reduced the levels of the inflammatory factors |
| Cn1c(C(=O)N2CC(F)(F)C2)cc2ccc(-c3nccc(Nc4ccc(-c5cn[nH]c5)c(F)c4)n3)cc21 [Compound 011] | 0.009 |  |  |
| Fc1cc(Nc2ccnc(-c3ccc4cc(-c5nccs5)[nH]c4c3)n2)ccc1-c1cn[nH]c1 [Compound 128] | 0.027 |  |  |
